From PubChem BioAssay AID1552 (Sanford-Burnham Center for Chemical Genomics, 2009)
Activity calls are given as the source filed them. The rule behind the calls is not given here.

Target: Ubiquitin-conjugating enzyme E2 N (Homo sapiens) (UniProt P61088)
Assay: UBE2N binders by NMR, biophysical, purified protein (AID 1552)
Conditions: NMR binding to purified UBE2N

Sequence of Ubiquitin-conjugating enzyme E2 N (Homo sapiens) (P61088 whole entry, looked up): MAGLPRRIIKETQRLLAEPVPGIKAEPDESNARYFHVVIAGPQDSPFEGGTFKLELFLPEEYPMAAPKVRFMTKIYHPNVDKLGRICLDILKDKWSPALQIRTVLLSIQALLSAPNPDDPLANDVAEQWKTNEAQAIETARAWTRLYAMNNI

Row | Compound | Kd
1 | CCNC(=S)Nc1c(C)n(C)n(-c2ccccc2)c1=O | > 4 mM (inactive)
2 | O=C(O)CCC1NCC2CC1CN1CCCCC21 (stereo unspecified) | > 4 mM (inactive)
3 | CC(=O)Oc1cc2c(C(C)=O)coc2c2ccccc12 | > 4 mM (inactive)
4 | O=S(=O)(NCc1ccco1)c1cccc2cccnc12 | > 4 mM (inactive)
5 | CC1(C)N([O-])c2cc([N+](=O)[O-])ccc2[N+]1=O | > 4 mM (inactive)
6 | Nc1nc(CSc2ncn(-c3ccccc3)n2)cs1 | > 4 mM (inactive)
7 | O=C(CSc1nnc2ccccn12)N1CCOCC1 | > 4 mM (inactive)
8 | COc1ccc(Cl)cc1NC(=O)C(N)=O | > 4 mM (inactive)
9 | CCOc1nc(C)ccc1-c1noc(-c2ccncc2)n1 | > 4 mM (inactive)
10 | OCC1CCCN2CCCCC12 (stereo unspecified) | > 4 mM (inactive)
11 | NC1C2CC3CC1CC(O)(C3)C2 (stereo unspecified) | > 4 mM (inactive)
12 | Oc1cc(O)cc(/C=C/c2ccccc2)c1 | > 4 mM (inactive)
13 | O=C1C2C3CCC(O3)C2C(=O)N1c1cccc(F)c1 (stereo unspecified) | > 4 mM (inactive)
14 | CC(=O)O[C@@H]1CC2C(C)(C)[C@H](O)CC[C@]2(C)C2CC[C@@]3(C)[C@H](c4ccoc4)OC(=O)C4OC43[C@@]21C (stereo partly specified) | > 4 mM (inactive)
15 | COc1ccc2cc1Oc1ccc(cc1)C[C@H]1c3c(cc4c(c3Oc3cc5c(cc3OC)CCN(C)[C@@H]5C2)OCO4)CCN1C | > 4 mM (inactive)
16 | Cn1cnc2c(=S)[nH]c(=O)n(Cc3ccccc3)c21 | > 4 mM (inactive)
17 | Cc1ccc(S(=O)(=O)CC(=O)N(C)C)cc1 | > 4 mM (inactive)
18 | CCCCN1C(=O)C2CC/C(=N/O)CC2C1=O (stereo unspecified) | > 4 mM (inactive)
19 | c1ccc(-c2nnc(CNCc3ccco3)o2)cc1 | > 4 mM (inactive)
20 | CC(C)(C)C(=O)Nc1ncc(C(F)(F)F)cc1Cl | > 4 mM (inactive)
21 | COC(=O)c1cccc(Cn2nnc3ccccc3c2=O)c1 | > 4 mM (inactive)
22 | CC(C)Oc1ccc(C2CC(=O)NNC2=O)cc1 (stereo unspecified) | > 4 mM (inactive)
23 | CN(C(=O)NC1CCS(=O)(=O)C1)C1CCCCC1 (stereo unspecified) | > 4 mM (inactive)
24 | Cc1c(C(=O)NC2=NCCS2)oc2ccccc12 | > 4 mM (inactive)

Row | Compound | Kd
25 | Cc1ccc(N2CCN(C(=O)c3ccccc3)CC2)c(C)c1 | > 4 mM (inactive)
26 | CCN(CC)c1nc2n(c(=O)n1)CCO2 | > 4 mM (inactive)
27 | NC(=O)c1ccsc1NC(=O)c1cccnc1 | > 4 mM (inactive)
28 | C=CC(C)(O)CC/C=C(\C)CCC=C(C)C (stereo unspecified) | > 4 mM (inactive)
29 | Nc1ccc(Cc2ccncc2)cc1 | > 4 mM (inactive)
30 | C=CCN1CC[C@]23c4c5ccc(O)c4OC2C(=O)CC[C@@]3(O)[C@H]1C5 (stereo partly specified) | > 4 mM (inactive)
31 | O=C(O)c1cccnc1N1CCCC1 | > 4 mM (inactive)
32 | COC(=O)CSc1n[nH]c(N)n1 | > 4 mM (inactive)
33 | OCCNc1nc2ccc(Cl)cc2[nH]1 | > 4 mM (inactive)
34 | COCc1cc(=O)oc2cc(N)ccc12 | > 4 mM (inactive)
35 | CC(=O)NC(=S)Nc1ccccc1C(N)=O | > 4 mM (inactive)
36 | O=C1C2CC=CCC2C(=O)N1c1ccccc1 (stereo unspecified) | > 4 mM (inactive)
37 | NC(=O)CSc1ccc(Br)cc1 | > 4 mM (inactive)
38 | Fc1cccc(Cl)c1CN1CCNCC1 | > 4 mM (inactive)
39 | CSc1ccccc1NC(=O)c1cnccn1 | > 4 mM (inactive)
40 | O=C(O)C1CCN(c2ccc(C(F)(F)F)cn2)CC1 | > 4 mM (inactive)
41 | O=C(NCc1ccncc1)c1cccc(F)c1 | > 4 mM (inactive)
42 | CCc1c(C)n([O-])c2c([n+]1=O)CCC2 | > 4 mM (inactive)
43 | NC(=O)c1c(Cl)nsc1-c1ccccc1Cl | > 4 mM (inactive)
44 | Cn1c(SCC(=O)NCCO)nc2ccccc2c1=O | > 4 mM (inactive)
45 | COc1cc(OC)c2c(=O)c(OC)c(-c3ccc(OC)c(OC)c3)oc2c1 | > 4 mM (inactive)
46 | CC(C)=CCc1c2c(c(O)c3c(=O)c(O)c(-c4ccccc4)oc13)C=CC(C)(C)O2 | > 4 mM (inactive)
47 | Cc1nc(-c2ccc(C(=O)O)s2)cs1 | > 4 mM (inactive)
48 | CO[C@H]1[C@@H](O)[C@@H](C)O[C@H](O[C@H]2CCC3(C)C4CCC5(C)[C@@H](C6=CC(=O)OC6)CC[C@]5(O)[C@@H]4CC[C@]3(O)C2)[C@@H]1O (stereo partly specified) | > 4 mM (inactive)

Row | Compound | Kd
49 | CN=C(C)c1c(O)n(C)c(=O)n(C)c1=O | > 4 mM (inactive)
50 | COc1cc([C@@H]2c3cc4c(cc3[C@H](O)[C@H]3COC(=O)[C@@H]23)OCO4)cc(OC)c1OC | > 4 mM (inactive)
51 | O=C(/C(=N\O)n1cncn1)c1ccccc1Cl | > 4 mM (inactive)
52 | Nc1ncnc(NCc2cccnc2)c1[N+](=O)[O-] | > 4 mM (inactive)
53 | O=C(O)C1(S(=O)(=O)c2ccccc2)CC1 | > 4 mM (inactive)
54 | Cn1c([O-])c([N+](C)(C)C)c(=O)n(C)c1=O | > 4 mM (inactive)
55 | Nc1ncnc2nc(SCCN3CCCCC3)[nH]c12 | > 4 mM (inactive)
56 | CC(C)Nc1nc2n(c(=O)n1)CCN2C(C)C | > 4 mM (inactive)
57 | O=c1cccc2n1C[C@H]1CNCC2C1 | > 4 mM (inactive)
58 | CCOC(=O)c1ccc(F)cc1F | > 4 mM (inactive)
59 | Cc1cc(N2CCCC2=O)c(N)cc1N | > 4 mM (inactive)
60 | CC(=O)n1c(N)nc2ccccc21 | > 4 mM (inactive)
61 | N#Cc1cnc(N2CCCCC2)nc1N | > 4 mM (inactive)
62 | c1ccc(-c2noc(-c3ccc4c(c3)OCO4)n2)nc1 | > 4 mM (inactive)
63 | O=C(CSc1ncccn1)Nc1nccs1 | > 4 mM (inactive)
64 | OC1COCc2nc3ccccc3n2C1 (stereo unspecified) | > 4 mM (inactive)
65 | Nc1cccc(-n2cccc2)c1 | > 4 mM (inactive)
66 | S=C(NCc1ccco1)NN1CCOCC1 | > 4 mM (inactive)
67 | O=C(Oc1ccc(-c2nnco2)cc1)N1CCCCC1 | > 4 mM (inactive)
68 | CC(=O)Nc1cccc(-c2n[nH]c(=S)n2C)c1 | > 4 mM (inactive)
69 | O=C(Nn1cnnc1)c1ccccc1Cl | > 4 mM (inactive)
70 | C=C1C(=O)OC2CC1C(OC(C)=O)C/C(C)=C/CC/C(C)=C/CC[C@]2(C)O (stereo partly specified) | > 4 mM (inactive)
71 | Nc1ccc(C(=O)NCC2CCCO2)cc1 (stereo unspecified) | > 4 mM (inactive)
72 | O=C(NCc1cccc(Cl)c1)c1cnccn1 | > 4 mM (inactive)

Row | Compound | Kd
73 | Clc1ncnc2[nH]ncc12 | > 4 mM (inactive)
74 | Cc1ccc2cccc(OC(=O)N3CCCC3)c2n1 | > 4 mM (inactive)
75 | Cc1ncc(C[n+]2csc3ccccc32)c(N)n1 | > 4 mM (inactive)
76 | CCOc1ccc2nc(NS(C)(=O)=O)sc2c1 | > 4 mM (inactive)
77 | CCC(C)C(NC)C(=O)O (stereo unspecified) | > 4 mM (inactive)
78 | CC(N)C(=O)c1ccco1 (stereo unspecified) | > 4 mM (inactive)
79 | COc1ccc(C2CC(=O)c3ccc(OC)cc3O2)cc1 (stereo unspecified) | > 4 mM (inactive)
80 | O=C(CNC(=O)c1ccc(F)cc1)NC1=NCCS1 | > 4 mM (inactive)
81 | CC(C)[C@@H]1CC[C@@H](C)C[C@H]1O | > 4 mM (inactive)
82 | Cc1cc(C)n2nc(C(=O)Nc3cccnc3)nc2n1 | > 4 mM (inactive)
83 | COc1ccc(-c2cc(=O)c3c(O)cc(O[C@@H]4O[C@H](CO[C@H]5O[C@H](C)[C@@H](O)[C@H](O)[C@@H]5O)[C@@H](O)[C@H](O)[C@H]4O)cc3o2)cc1O | > 4 mM (inactive)
84 | OC12CC3CC(CC(C3)C1)C2 | > 4 mM (inactive)
85 | Nc1nnc(SCc2ccc3c(c2)OCO3)s1 | > 4 mM (inactive)
86 | COc1cc2c(cc1OC)[C@@]13CCN4CC5=CCOC6CC(=O)N2C1[C@H]6[C@H]5C[C@H]43 (stereo partly specified) | > 4 mM (inactive)
87 | Cc1cccc(CO)n1 | > 4 mM (inactive)
88 | CC[C@H](/C=C/C(C)C1CCC2C3CCC4=CC(=O)CC[C@]4(C)C3CC[C@]12C)C(C)C (stereo partly specified) | > 4 mM (inactive)
89 | Cc1nc(SCC#N)c2c(C)c(C)sc2n1 | > 4 mM (inactive)
90 | CC(=O)Nc1ccc(N2C(=O)C=CC2=O)cc1C | > 4 mM (inactive)
91 | Cc1cc(=O)n2ccc(CN3CCOCC3)c(O)c2n1 | > 4 mM (inactive)
92 | Cc1nn(CC(=O)Nc2ccccc2)c(=O)c2ccccc12 | > 4 mM (inactive)
93 | CCOC(=O)Cn1cnc2sc3c(c2c1=O)CCC3 | > 4 mM (inactive)
94 | Cn1c(NCC(=O)O)nc2c1c(=O)[nH]c(=O)n2C | > 4 mM (inactive)
95 | Cc1nc2c(n1O)CCc1c-2no[n+]1[O-] | > 4 mM (inactive)
96 | O=S1(=O)C=CC(Nc2ccccc2)C1 (stereo unspecified) | > 4 mM (inactive)

Row | Compound | Kd
97 | Cc1[nH]ccc2c1[nH]c1cc(=O)ccc12 | > 4 mM (inactive)
98 | CCN1C[C@@]2(COC)C3[C@@H](OC)[C@H]4[C@@H]1[C@]3(C(OC)C[C@H]2O)C1C[C@@]2(O)[C@H](OC(=O)c3ccccc3)C1[C@]4(OC(C)=O)[C@@H](O)[C@@H]2OC (stereo partly specified) | > 4 mM (inactive)
99 | Oc1ccccc1N1CCCC1 | > 4 mM (inactive)
100 | COc1cc(OC)c2c(=O)c(-c3ccc4c(c3)OCO4)coc2c1 | > 4 mM (inactive)
101 | CNCc1ccccc1 | > 4 mM (inactive)
102 | Cc1cc(C(=O)O)n[nH]1 | > 4 mM (inactive)
103 | Nc1cccnc1N1CCOCC1 | > 4 mM (inactive)
104 | Cc1cc(C)nc(NC(N)=NCc2ccco2)n1 | > 4 mM (inactive)
105 | C=CCc1ccc2c(c1)OCO2 | > 4 mM (inactive)
106 | CC(=O)O[C@H]1CCC2(C)C3=C(CCC2C1(C)C)[C@]1(C)CCC(C(C)CCC=C(C)C)[C@@]1(C)CC3 (stereo partly specified) | > 4 mM (inactive)
107 | COc1ccc2c(c1)OCC(Cc1ccc(OC)c(O)c1)C2=O (stereo unspecified) | > 4 mM (inactive)
108 | CCc1c(C(=O)N2CCOCC2)csc1C | > 4 mM (inactive)
109 | CSc1ncc(C(=O)O)n1Cc1ccccc1 | > 4 mM (inactive)
110 | O=C(O)c1ccccc1C(=O)Nc1ccccc1 | > 4 mM (inactive)
111 | O=C(c1ccccc1)N1CCOCC1 | > 4 mM (inactive)
112 | Cc1noc(C)c1C(=O)N1CCc2ccccc2C1 | > 4 mM (inactive)
113 | O=C(O)c1ccc(-c2cccs2)cc1 | > 4 mM (inactive)
114 | COc1ccccc1-c1nc(-c2ccc(C)nc2OC)no1 | > 4 mM (inactive)
115 | COC(=O)CCC(C)C1CCC2C3CCC4C[C@H](O)CC[C@]4(C)C3C[C@H](O)[C@]12C (stereo partly specified) | > 4 mM (inactive)
116 | Cc1cc(C(=O)c2c(C)nn(C)c2Cl)n(C)n1 | > 4 mM (inactive)
